According to patent US10227331B2 (priority 2015, dated 2019):
Read-outs that look alike come from different tables or passages of the source.

Tests used:
[1] = system: P. aeruginosa expressing IMP-1, efflux− (MB9799); assay: Efflux: concentration of MBL inhibitor which restores susceptibility to imipenem; type: cell-based, Pseudomonas aeruginosa; conditions: imipenem at 2 μg/mL, in the presence of a class A, C, D serine β-lactamase inhibitor closely related to relebactam
Description: (§1) The strain background is Pseudomonas aeruginosa PAO1.

[2] = system: P. aeruginosa expressing IMP-1, efflux+ (MB9798); type: cell-based, Pseudomonas aeruginosa; conditions: for P. aeruginosa expressing IMP-1, efflux+ (MB9798) MITC95: imipenem at 2 μg/mL, in the presence of a class A, C, D serine β-lactamase inhibitor closely related to relebactam; for Efflux ratio: ratio MITC95 PA_9798/MITC95 PA_9799
Description: as §1

[3] = target: IMP-1 (Serratia marcescens, UniProt P52699); assay: biochemical; type: biochemical
Outline: (§2)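 Fluorescence assay of metallo-β-lactamase activity using CCF2-FA, a cephalosporin-linked 7-hydroxycoumarin–fluorescein substrate. Inhibitor, enzyme and substrate were incubated together for 2 hours at 25° C. IC50 came from a 4-parameter fit of inhibition versus inhibitor concentration.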

[4] = target: NDM-1 (Klebsiella pneumoniae, UniProt C7C422); assay: biochemical; type: biochemical; conditions: CCF2-FA substrate, 2 hours at 25° C; read-out: NDM-1 IC50
Outline: as §2

[5] = target: VIM-1 (Pseudomonas aeruginosa (strain ATCC 15692 / DSM 22644 / CIP 104116 / JCM 14847 / LMG 12228 / 1C / PRS 101 / PAO1), UniProt A0A0F7KYQ8); assay: biochemical; conditions: CCF2-FA substrate, 2 hours at 25° C
Outline: as §2

[6] = system: Escherichia coli expressing NDM-1 (CLB30005, CLB30016); type: cell-based; conditions: with imipenem 1 μg/ml; 95% inhibition of bacterial growth
Outline: (§3)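 Clinical strains grown overnight on blood agar, then diluted 1:100 in 1.1× CAMHB and exposed to test compound with imipenem at 1 μg/ml. Incubation was 22–24 h at 35° C; growth was read by absorbance to find the compound concentration restoring imipenem susceptibility.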

[7] = system: Klebsiella pneumoniae expressing VIM-1 (IHMA599644); type: cell-based; conditions: with imipenem 1 μg/ml; 95% inhibition of bacterial growth
Outline: as §3

[8] = system: Serratia marcescens expressing IMP-1 (CL5741); type: cell-based; conditions: with imipenem 1 μg/ml; 95% inhibition of bacterial growth
Outline: as §3

[9] = CCF2-FA substrate, 2 hours at 25° C, read-out: IMP-1 IC50

Sequence of NDM-1 (C7C422 whole entry, looked up, species assumed): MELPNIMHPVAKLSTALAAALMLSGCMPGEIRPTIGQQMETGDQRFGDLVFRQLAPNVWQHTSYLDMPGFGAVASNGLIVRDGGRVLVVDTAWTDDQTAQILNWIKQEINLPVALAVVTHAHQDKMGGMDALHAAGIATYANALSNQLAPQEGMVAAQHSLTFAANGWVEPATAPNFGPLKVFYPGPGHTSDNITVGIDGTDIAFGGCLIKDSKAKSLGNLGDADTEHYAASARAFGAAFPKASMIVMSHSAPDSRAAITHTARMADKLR
Sequence of IMP-1 (P52699 whole entry, looked up, species assumed): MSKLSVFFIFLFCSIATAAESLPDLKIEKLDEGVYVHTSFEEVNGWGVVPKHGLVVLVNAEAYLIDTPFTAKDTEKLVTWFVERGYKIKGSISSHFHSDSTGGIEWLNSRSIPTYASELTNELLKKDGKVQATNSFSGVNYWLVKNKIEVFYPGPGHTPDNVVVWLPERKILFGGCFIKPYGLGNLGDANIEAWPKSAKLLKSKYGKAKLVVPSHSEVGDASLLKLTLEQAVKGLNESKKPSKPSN

Compound	P. aeruginosa expressing IMP-1, efflux− (MB9799) MITC95 [1]	P. aeruginosa expressing IMP-1, efflux+ (MB9798) MITC95 [2]	Efflux ratio [2]	IC50 [3, 9]	IC50 [4]	IC50 [5]	Escherichia coli expressing NDM-1 (CLB30016) MITC95 [6]	Klebsiella pneumoniae expressing VIM-1 (IHMA599644) MITC95 [7]	Serratia marcescens expressing IMP-1 (CL5741) MITC95 [8]	IC50 [3]
NS(=O)(=O)c1c(S(=O)(=O)C2CCNCC2)ccc(-c2ccc(C3CCNCC3)cc2)c1-c1nnn[nH]1 [Example 228, 4′-(piperidin-4-yl)-4-(piperidin-4-ylsulfonyl)-2-(1H-tetrazol-5-yl)-[1,1′-biphenyl]-3-sulfonamide]	0.7813 µM	0.7813 µM	1.00	521 pM	985 pM	314 pM	1.563 µM	3.125 µM	3.125 µM	–
Cn1cc(C(=O)C(F)(F)F)c2c(-c3ccc(S(=O)(=O)C4CNC4)c(S(N)(=O)=O)c3-c3nnn[nH]3)cccc21 [Example 229, 6-(azetidin-3-ylsulfonyl)-3-(1-methyl-3-(2,2,2-trifluoroacetyl)-1H-indol-4-yl)-2-(1H-tetrazol-5-yl)benzenesulfonamide]	6.25 µM	25 µM	4.00	–	139 pM	474 pM	6.25 µM	12.5 µM	6.25 µM	1740 pM
COc1ccc(Cc2cc3c(-c4ccc(S(=O)(=O)C5CNC5)c(S(N)(=O)=O)c4-c4nnn[nH]4)cccc3n2C)cc1 [Example 230, 6-(azetidin-3-ylsulfonyl)-3-(2-(4-methoxybenzyl)-1-methyl-1H-indol-4-yl)-2-(1H-tetrazol-5-yl)benzenesulfonamide]	3.125 µM	100 µM	32.00	436 pM	110 pM	356 pM	6.25 µM	25 µM	6.25 µM	–
COc1ccc(Cc2cc3c(-c4ccc(S(=O)(=O)C5CNC5)c(S(N)(=O)=O)c4-c4nnn[nH]4)cccc3[nH]2)cc1 [Example 231, 6-(azetidin-3-ylsulfonyl)-3-(2-(4-methoxybenzyl)-1H-indol-4-yl)-2-(1H-tetrazol-5-yl)benzenesulfonamide]	3.125 µM	25 µM	8.00	717 pM	102 pM	558 pM	6.25 µM	12.5 µM	6.25 µM	–
Nc1nc2c(-c3ccc(S(=O)(=O)c4ccccc4)c(S(N)(=O)=O)c3-c3nnn[nH]3)cccc2s1 [Example 232, 3-(2-aminobenzo[d]thiazol-4-yl)-6-(phenylsulfonyl)-2-(1H-tetrazol-5-yl)benzenesulfonamide]	1.563 µM	12.5 µM	8.00	586 pM	583 pM	539 pM	6.25 µM	12.5 µM	3.125 µM	–
Nc1nc2c(-c3ccc(S(=O)(=O)c4ccccn4)c(S(N)(=O)=O)c3-c3nnn[nH]3)cccc2s1 [Example 233, 3-(2-aminobenzo[d]thiazol-4-yl)-6-(pyridin-2-ylsulfonyl)-2-(1H-tetrazol-5-yl)benzenesulfonamide]	1.563 µM	12.5 µM	8.00	203 pM	32.4 pM	113 pM	3.125 µM	12.5 µM	3.125 µM	–
CSc1ccc(-c2ccc(C3CCNCC3)cc2)c(-c2nnn[nH]2)c1S(N)(=O)=O [Example 234, 4-(Methylthio)-4′-(piperidin-4-yl)-2-(1H-tetrazol-5-yl)-[1,1′-biphenyl]-3-sulfonamide]	0.7813 µM	50 µM	64.00	4370 pM	15600 pM	13900 pM	3.125 µM	12.5 µM	3.125 µM	–
C[S+]([O-])c1ccc(-c2ccc(C3CCNCC3)cc2)c(-c2nnn[nH]2)c1S(N)(=O)=O (stereo not drawn) [Example 235, 4-(methylsulfinyl)-4′-(piperidin-4-yl)-2-(1H-tetrazol-5-yl)-[1,1′-biphenyl]-3-sulfonamide]	6.25 µM	50 µM	8.00	23600 pM	31900 pM	8180 pM	12.5 µM	50 µM	12.5 µM	–
CS(=O)(=O)c1ccc(-c2ccc(C3CCNCC3)cc2)c(-c2nnn[nH]2)c1S(N)(=O)=O [Example 236, 4-(methylsulfonyl)-4′-(piperidin-4-yl)-2-(1H-tetrazol-5-yl)-[1,1′-biphenyl]-3-sulfonamide]	0.7813 µM	6.25 µM	8.00	104 pM	2120 pM	127 pM	3.125 µM	3.125 µM	3.125 µM	–
CS(=O)(=O)c1ccc(-c2ccc(N)nc2)c(-c2nn[nH]n2)c1S(N)(=O)=O [Example 237, 3-(6-Aminopyridin-3-yl)-6-(methylsulfonyl)-2-(2H-tetrazol-5-yl)benzenesulfonamide]	1.563 µM	25 µM	15.99	630 pM	5810 pM	754 pM	0.3906 µM	6.25 µM	1.563 µM	–
CS(=O)(=O)c1ccc(-c2cnc3ccccn23)c(-c2nn[nH]n2)c1S(N)(=O)=O [Example 238, 3-(Imidazo[1,2-a]pyridin-3-yl)-6-(methylsulfonyl)-2-(2H-tetrazol-5-yl) benzenesulfonamide]	1.563 µM	50 µM	31.99	332 pM	862 pM	201 pM	3.125 µM	6.25 µM	3.125 µM	–
CS(=O)(=O)c1ccc(-c2cccc3sc(N)nc23)c(-c2nn[nH]n2)c1S(N)(=O)=O [Example 239, 3-(2-aminobenzo[d]thiazol-4-yl)-6-(methylsulfonyl)-2-(2H-tetrazol-5-yl) benzenesulfonamide]	1.563 µM	1.563 µM	1.00	90.9 pM	128 pM	108 pM	12.5 µM	6.25 µM	3.125 µM	–
CS(=O)(=O)c1ccc(-c2cccc3nc(N)[nH]c23)c(-c2nn[nH]n2)c1S(N)(=O)=O [Example 240, 3-(2-Amino-1H-benzo[d]imidazol-7-yl)-6-(methylsulfonyl)-2-(2H-tetrazol-5-yl) benzenesulfonamide]	12.5 µM	50 µM	4.00	7460 pM	4770 pM	2600 pM	3.125 µM	25 µM	12.5 µM	–
CS(=O)(=O)c1ccc(-c2ccc(NS(=O)(=O)C3CC3)cc2)c(-c2nn[nH]n2)c1S(N)(=O)=O [Example 241, 4′-(Cyclopropanesulfonamido)-4-(methylsulfonyl)-2-(2H-tetrazol-5-yl)-[1,1′-biphenyl]-3-sulfonamide]	1.563 µM	12.5 µM	8.00	44.4 pM	658 pM	86.8 pM	6.25 µM	12.5 µM	3.125 µM	–
